Measurements reported in ChEMBL document CHEMBL4477252, “Optimization of microtubule affinity regulating kinase (MARK) inhibitors with improved physical properties” (Bioorg Med Chem Lett, 2016).
In brackets after ≈: the same amount, converted by molar mass.

Columns and labels:
[1] = target: Fibroblast growth factor receptor 2 (Homo sapiens, UniProt P21802); assay: Inhibition of recombinant human His-tagged cytoplasmic FGFR2 expressed in baculovirus expression system by Z'-LYTE assay
[2] = target: T1, Beta-adrenergic receptor kinase 1 (Homo sapiens, UniProt P25098); assay: Inhibition of full-length recombinant human His-tagged ADRBK1 expressed in baculovirus expression system by Z'-LYTE assay
T1 sequence (P25098 whole entry): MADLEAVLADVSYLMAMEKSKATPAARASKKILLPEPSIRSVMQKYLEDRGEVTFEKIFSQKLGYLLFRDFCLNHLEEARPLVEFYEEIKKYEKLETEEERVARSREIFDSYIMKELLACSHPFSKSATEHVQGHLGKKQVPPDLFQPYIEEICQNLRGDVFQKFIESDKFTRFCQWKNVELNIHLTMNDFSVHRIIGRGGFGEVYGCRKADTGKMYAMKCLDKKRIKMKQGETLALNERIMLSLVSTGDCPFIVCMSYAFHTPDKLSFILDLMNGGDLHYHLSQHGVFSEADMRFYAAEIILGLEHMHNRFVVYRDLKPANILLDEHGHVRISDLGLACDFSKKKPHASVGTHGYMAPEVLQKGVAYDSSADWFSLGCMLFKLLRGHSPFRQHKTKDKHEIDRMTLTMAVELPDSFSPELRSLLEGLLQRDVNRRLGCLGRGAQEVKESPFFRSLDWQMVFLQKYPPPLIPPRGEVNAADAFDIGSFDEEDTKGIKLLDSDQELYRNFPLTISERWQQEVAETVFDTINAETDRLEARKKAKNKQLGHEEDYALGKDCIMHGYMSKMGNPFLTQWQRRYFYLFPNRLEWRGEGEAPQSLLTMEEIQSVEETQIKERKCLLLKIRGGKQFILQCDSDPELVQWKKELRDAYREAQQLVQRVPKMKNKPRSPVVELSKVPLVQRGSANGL

[3] = target: Serine/threonine-protein kinase PAK 1 (Homo sapiens, UniProt Q13153); assay: Inhibition of full-length recombinant human GST-tagged PAK1 expressed in baculovirus expression system by Z'-LYTE assay
Serine/threonine-protein kinase PAK 1, sequence (Q13153 whole entry): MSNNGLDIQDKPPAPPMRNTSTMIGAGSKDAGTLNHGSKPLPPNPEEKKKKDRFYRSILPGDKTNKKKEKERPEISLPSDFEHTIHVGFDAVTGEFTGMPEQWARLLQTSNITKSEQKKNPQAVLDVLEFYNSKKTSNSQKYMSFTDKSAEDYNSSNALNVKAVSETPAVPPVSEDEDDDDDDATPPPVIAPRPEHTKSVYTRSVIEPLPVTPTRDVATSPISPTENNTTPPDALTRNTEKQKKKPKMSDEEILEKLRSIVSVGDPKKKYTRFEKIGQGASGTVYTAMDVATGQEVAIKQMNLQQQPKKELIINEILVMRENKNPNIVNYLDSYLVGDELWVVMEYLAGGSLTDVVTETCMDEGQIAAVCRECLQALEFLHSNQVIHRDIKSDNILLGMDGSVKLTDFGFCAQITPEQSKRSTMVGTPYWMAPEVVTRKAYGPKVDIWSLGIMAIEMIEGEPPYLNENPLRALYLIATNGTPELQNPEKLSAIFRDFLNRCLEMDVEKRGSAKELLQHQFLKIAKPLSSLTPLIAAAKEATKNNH

[4] = target: Mitogen-activated protein kinase 8 (Homo sapiens, UniProt P45983); assay: Inhibition of full-length recombinant human His-tagged MAPK8 expressed in baculovirus expression system by Z'-LYTE assay
Mitogen-activated protein kinase 8, sequence (P45983 whole entry): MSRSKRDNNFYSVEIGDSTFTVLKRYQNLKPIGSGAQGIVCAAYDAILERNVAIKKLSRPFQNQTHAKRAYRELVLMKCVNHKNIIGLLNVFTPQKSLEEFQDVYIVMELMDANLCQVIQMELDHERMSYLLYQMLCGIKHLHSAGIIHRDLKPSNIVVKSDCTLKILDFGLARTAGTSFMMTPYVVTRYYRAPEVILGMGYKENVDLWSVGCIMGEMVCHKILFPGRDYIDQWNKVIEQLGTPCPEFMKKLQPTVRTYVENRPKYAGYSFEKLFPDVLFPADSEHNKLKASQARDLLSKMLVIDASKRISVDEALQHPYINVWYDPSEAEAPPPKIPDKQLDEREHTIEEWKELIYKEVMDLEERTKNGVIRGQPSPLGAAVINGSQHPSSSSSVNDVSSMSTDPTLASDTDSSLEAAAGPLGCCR

[5] = target: Tyrosine-protein kinase HCK (Homo sapiens, UniProt P08631); assay: Inhibition of full-length human N-terminal GST-tagged HCK expressed in baculovirus expression system by Z'-LYTE assay
Tyrosine-protein kinase HCK, sequence (P08631 whole entry): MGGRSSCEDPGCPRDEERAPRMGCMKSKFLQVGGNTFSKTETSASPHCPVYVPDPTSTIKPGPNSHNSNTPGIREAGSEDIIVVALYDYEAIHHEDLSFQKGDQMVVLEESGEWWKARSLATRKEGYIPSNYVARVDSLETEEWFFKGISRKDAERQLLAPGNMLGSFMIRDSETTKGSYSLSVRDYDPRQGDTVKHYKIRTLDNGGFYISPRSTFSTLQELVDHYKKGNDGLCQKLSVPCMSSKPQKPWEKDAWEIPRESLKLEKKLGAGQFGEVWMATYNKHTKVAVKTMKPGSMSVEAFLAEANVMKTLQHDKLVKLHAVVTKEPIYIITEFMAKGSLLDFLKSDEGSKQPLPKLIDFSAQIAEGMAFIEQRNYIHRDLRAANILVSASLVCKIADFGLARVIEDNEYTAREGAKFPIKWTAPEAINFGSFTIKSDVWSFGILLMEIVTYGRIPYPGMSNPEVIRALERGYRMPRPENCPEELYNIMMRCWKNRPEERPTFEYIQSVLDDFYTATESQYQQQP

[6] = Oral bioavailability in Sprague-Dawley rat at 5 mL/kg administered through gastric gavage measured after 24 hrs by LC-MS/MS analysis; assay type: ADME, organism-based; conditions: in vivo
[7] = target: T2, Serine/threonine-protein kinase TBK1 (Homo sapiens, UniProt Q9UHD2); assay: Inhibition of full-length recombinant human GST-tagged TBK1 expressed in insect cells by Z'-LYTE assay
T2 sequence (Q9UHD2 whole entry): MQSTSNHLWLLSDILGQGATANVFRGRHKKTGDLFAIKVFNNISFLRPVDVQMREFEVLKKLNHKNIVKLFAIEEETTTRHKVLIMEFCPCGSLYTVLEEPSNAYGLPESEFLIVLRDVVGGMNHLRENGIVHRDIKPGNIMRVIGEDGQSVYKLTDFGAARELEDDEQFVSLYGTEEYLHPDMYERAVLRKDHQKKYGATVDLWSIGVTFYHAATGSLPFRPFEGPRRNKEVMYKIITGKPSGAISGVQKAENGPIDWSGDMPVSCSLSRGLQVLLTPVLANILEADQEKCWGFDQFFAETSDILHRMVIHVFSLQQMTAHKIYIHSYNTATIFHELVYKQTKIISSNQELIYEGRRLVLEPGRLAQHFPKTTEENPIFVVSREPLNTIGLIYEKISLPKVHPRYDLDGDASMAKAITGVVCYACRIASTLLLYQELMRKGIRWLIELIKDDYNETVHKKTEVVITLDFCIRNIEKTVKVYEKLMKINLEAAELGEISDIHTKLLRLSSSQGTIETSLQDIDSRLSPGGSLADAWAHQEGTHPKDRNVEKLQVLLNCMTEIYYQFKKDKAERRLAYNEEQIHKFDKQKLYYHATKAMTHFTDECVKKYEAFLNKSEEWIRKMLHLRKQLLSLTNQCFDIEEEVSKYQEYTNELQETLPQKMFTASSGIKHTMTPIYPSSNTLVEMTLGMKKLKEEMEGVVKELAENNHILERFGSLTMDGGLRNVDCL

[8] = Inhibition of full-length recombinant human GST-tagged PKG2 expressed in baculovirus expression system by Z'-LYTE assay
[9] = target: MDR1 (ABCB1, P-glycoprotein) (Rattus norvegicus, UniProt P43245); assay: Substrate activity at rat MDR1 expressed in LLC-PK1 cells assessed as efflux ratio of permeability across basolateral to apical over apical to basolateral side at 5 uM; assay type: ADME, cell-based
MDR1 (ABCB1, P-glycoprotein), sequence (P43245 whole entry): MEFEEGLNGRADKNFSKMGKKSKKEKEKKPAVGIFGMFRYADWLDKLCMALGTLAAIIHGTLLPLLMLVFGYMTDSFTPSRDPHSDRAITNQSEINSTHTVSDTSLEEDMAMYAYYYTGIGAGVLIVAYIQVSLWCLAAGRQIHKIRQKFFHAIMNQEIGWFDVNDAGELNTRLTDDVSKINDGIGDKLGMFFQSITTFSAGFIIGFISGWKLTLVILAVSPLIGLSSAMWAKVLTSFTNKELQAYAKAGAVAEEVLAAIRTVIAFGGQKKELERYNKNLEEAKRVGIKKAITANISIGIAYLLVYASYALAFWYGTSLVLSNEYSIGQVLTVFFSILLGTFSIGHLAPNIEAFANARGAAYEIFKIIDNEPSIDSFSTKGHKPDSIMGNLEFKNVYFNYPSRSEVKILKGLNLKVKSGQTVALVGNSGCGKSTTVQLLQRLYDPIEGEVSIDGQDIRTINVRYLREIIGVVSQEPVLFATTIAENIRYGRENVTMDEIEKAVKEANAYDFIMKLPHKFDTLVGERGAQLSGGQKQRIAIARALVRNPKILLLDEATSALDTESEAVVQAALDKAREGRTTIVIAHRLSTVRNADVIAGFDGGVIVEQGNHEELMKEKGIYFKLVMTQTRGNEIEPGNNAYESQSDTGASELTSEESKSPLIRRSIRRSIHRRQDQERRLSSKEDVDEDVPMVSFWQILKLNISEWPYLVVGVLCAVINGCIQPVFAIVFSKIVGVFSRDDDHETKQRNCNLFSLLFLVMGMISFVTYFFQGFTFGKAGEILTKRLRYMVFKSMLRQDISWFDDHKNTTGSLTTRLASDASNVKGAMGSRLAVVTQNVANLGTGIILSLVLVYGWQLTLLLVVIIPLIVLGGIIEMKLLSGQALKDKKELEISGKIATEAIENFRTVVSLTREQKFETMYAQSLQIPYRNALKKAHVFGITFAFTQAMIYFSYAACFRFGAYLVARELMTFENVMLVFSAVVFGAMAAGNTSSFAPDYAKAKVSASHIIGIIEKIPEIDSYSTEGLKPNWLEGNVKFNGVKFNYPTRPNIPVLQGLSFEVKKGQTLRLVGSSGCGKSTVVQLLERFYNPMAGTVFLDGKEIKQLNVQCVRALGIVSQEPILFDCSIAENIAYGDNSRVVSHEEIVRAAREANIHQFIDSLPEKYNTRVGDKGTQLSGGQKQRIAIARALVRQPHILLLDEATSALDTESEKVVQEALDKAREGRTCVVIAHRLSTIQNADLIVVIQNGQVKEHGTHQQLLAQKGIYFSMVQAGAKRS

[10] = Solubility of the compound at pH 2; assay type: physicochemical; conditions: buffer
[11] = Solubility of the compound at pH 7; assay type: physicochemical; conditions: buffer
[12] = Half life in Beagle dog at 0.5 mL/kg, iv administered through catheter or 5 mL/kg, administered through gastric gavage measured after 24 hrs by LC-MS/MS analysis; assay type: ADME, organism-based, Canis lupus familiaris; conditions: in vivo
[13] = Half life in Sprague-Dawley rat at 1 mL/kg, iv administered through catheter measured after 24 hrs by LC-MS/MS analysis; assay type: ADME, organism-based; conditions: in vivo
[14] = Clearance in Beagle dog at 0.5 mL/kg, iv administered through catheter measured after 24 hrs by LC-MS/MS analysis; assay type: ADME, organism-based, Canis lupus familiaris; conditions: in vivo
[15] = Volume of distribution in Beagle dog at 0.5 mL/kg, iv administered through catheter or 5 mL/kg, administered through gastric gavage measured after 24 hrs by LC-MS/MS analysis; assay type: ADME, organism-based, Canis lupus familiaris; conditions: in vivo

Fibroblast growth factor receptor 2, sequence (P21802 whole entry): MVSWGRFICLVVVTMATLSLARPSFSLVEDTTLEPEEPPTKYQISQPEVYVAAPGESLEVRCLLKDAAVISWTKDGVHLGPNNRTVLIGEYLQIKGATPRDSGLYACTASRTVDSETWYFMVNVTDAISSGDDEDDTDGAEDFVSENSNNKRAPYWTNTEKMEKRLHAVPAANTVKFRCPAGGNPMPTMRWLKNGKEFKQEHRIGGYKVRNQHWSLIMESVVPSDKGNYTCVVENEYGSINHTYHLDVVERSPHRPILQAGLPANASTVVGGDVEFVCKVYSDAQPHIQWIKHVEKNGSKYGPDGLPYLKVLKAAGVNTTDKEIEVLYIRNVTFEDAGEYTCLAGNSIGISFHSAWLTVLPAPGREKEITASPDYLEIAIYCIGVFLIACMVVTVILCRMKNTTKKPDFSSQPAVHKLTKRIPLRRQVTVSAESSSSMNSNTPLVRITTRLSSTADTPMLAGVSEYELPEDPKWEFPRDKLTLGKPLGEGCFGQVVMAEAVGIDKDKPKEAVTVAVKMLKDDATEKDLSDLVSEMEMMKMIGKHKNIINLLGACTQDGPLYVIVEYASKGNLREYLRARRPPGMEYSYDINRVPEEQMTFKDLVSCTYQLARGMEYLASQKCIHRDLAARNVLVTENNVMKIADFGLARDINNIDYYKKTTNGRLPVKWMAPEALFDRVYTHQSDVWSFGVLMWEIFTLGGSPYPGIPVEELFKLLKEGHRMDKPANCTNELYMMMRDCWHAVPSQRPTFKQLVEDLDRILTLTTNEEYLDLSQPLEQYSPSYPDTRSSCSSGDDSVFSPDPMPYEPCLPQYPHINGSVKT

**Q.** What does the source list for O=C(NCC(F)(F)F)c1cc(-c2cnn3cc(-c4ccc(OCCN5CCCCC5)cc4)cnc23)cs1?
**A.** IC50 [1]: 70 nM; IC50 [2]: 0.61 µM; IC50 [3]: 8.3 µM; IC50 [4]: 2.8 µM; IC50 [5]: 30 nM; bioavailability [6]: 46%; IC50 [7]: < 10 nM

**Q.** Which IC50 [1] does the source give for Cn1cc(-c2cnc3c(-c4csc(C(=O)NCC(F)(F)F)c4)cnn3c2)cn1 here?
**A.** 170 nM

**Q.** What about the IC50 [8] of the same compound?
**A.** 480 nM

**Q.** What about the IC50 [2] of the same compound?
**A.** 23 µM

**Q.** What about the IC50 [3] of the same compound?
**A.** 6.2 µM

**Q.** What about the IC50 [4] of the same compound?
**A.** 24 µM

**Q.** What about the IC50 [5] of the same compound?
**A.** 33 nM

**Q.** And the bioavailability [6]?
**A.** 53%

**Q.** What about the IC50 [7] of the same compound?
**A.** < 10 nM

**Q.** And the efflux ratio at 5 µM [9]?
**A.** 1.9

**Q.** And the solubility [10]?
**A.** < 3 µM

**Q.** For Cn1cc(-c2cnc3c(-c4csc(C(=O)N[C@@H]5CCCC[C@@H]5N)c4)cnn3c2)cn1 (racemic), which IC50 [1] is on record?
**A.** 11 nM

**Q.** And the IC50 [2]?
**A.** 0.16 µM

**Q.** And the IC50 [3]?
**A.** 0.024 µM

**Q.** What about the IC50 [4] of the same compound?
**A.** 1.2 µM

**Q.** What about the IC50 [5] of the same compound?
**A.** 2.8 nM

**Q.** What about the solubility [11] of the same compound?
**A.** 68 µM (≈ 28.7 µg/mL)

**Q.** What about the IC50 [7] of the same compound?
**A.** < 1 nM

**Q.** What about the efflux ratio at 5 µM [9] of the same compound?
**A.** 54

**Q.** Which IC50 [1] does the source give for Cc1sc(C(=O)N[C@@H]2[C@H](N)CCCC2(F)F)cc1-c1cnn2cc(Cl)cnc12 here?
**A.** 17000 nM

**Q.** What about the IC50 [8] of the same compound?
**A.** 990 nM

**Q.** And the half-life [12]?
**A.** 60 min

**Q.** What about the IC50 [2] of the same compound?
**A.** 11 µM

**Q.** And the half-life [13]?
**A.** 42 min

**Q.** And the IC50 [3]?
**A.** 2.1 µM

**Q.** What about the IC50 [4] of the same compound?
**A.** 15 µM

**Q.** And the IC50 [5]?
**A.** 6400 nM

**Q.** What about the solubility [11] of the same compound?
**A.** 114 µM (≈ 48.6 µg/mL)

**Q.** And the clearance [14]?
**A.** 27 mL/min/kg

**Q.** What about the IC50 [7] of the same compound?
**A.** < 10 nM

**Q.** And the Vd [15]?
**A.** 2.3 L/kg

**Q.** And the solubility [10]?
**A.** 206 µM (≈ 87.7 µg/mL)
